Assay results taken from article PMC12503906, “Novel Pyrazolo [1,5‐a]−1,3,5‐Triazine Derivatives as CDK7 Inhibitors: Synthesis and Biological Insights in Pancreatic Ductal Adenocarcinoma Models” (Chemmedchem, 2025).

Assays:
Bax/Bcl‐2 [1] = experiment: Bax/Bcl‐2 ratio by RT‐PCR, SUIT 2.28 cells; format: cell-based
Method: (§1) In order to understand modulation of downstream genes of CDK7, gene expression analysis by qPCR was performed in all cell lines. Cells (5 × 10^5/well) were seeded in 6‐well plates and treated with the compounds 1b and 1g at 1× and 4 × IC50 concentrations. Cell lysates were collected 24 h post‐treatment using 300 µL of TRIzol Reagent (Ambion, 15,596,018) per well. Total RNA was extracted by mixing 60 µL of chloroform to the samples, incubating for 3 min and centrifuging at 12,000 rcf for 15 min at 4 °C. The upper aqueous phase containing RNA was transferred to a new Eppendorf and mixed with 120 µL of cold isopropanol in order to allow the RNA to precipitate. Samples were incubated at RT for 10 min and were then centrifuged at 12,000 rcf for 10 min at 4 °C. The isopropanol was carefully removed, and the pellet was washed twice with 70% ETOH. Pellets were left to air dry and consequently resuspended in RNAse‐free water. Samples were left agitation on a thermomixer at 55 °C for 10 min at 600 rpm and were then quantified through NanoDrop technology (Thermo Scientific, NanoDrop One/One^c). RNA samples were stored at −80 °C.
(§2) In order to perform cDNA synthesis, the First Strand cDNA synthesis kit (Thermo Scientific, K1612) was used. The previously isolated RNA was mixed with 1 µL of oligo dT18 primer into a pcr tube. Nuclease free water was added to reach a final volume of 11 µL. Samples were centrifuged at 1200 rcf for 5 min and were then placed on a thermomixer at 65 °C for a few minutes. A master mix was prepared, including 4 µL of 5× reaction buffer, 1 µL of ribolock RNAse inhibitor, 2 µL of dntp mix (10 mM), and 2 µL of M‐mulv reverse transcriptase for each sample. In total 9 µL of master mix were added to each vial. Samples were centrifuged again and were finally synthesized, following a cycle of 60 min at 37 °C and 5 min at 70 °C. cDNA was now finally synthesized and could be stored at −20 °C. RT‐PCRs reactions were performed using SYBR Green (Bio‐Rad, 1,725,271) (5 µL per sample), primer mix (0.3 µM) (2 µL per sample), and cDNA (10 ng µL^− ^1) (3 µL per sample). […] RT‐PCR assays were carried out in a GeneAmp 5700 Sequence Detection System programmed to hold at 50 °C for 30 min, to hold at 95 °C for 10 min, and to complete 45 cycles of 95 °C for […] and 50 °C for 1 min. The genes that were investigated are shown in Table 5 , with their respective forward and reverse primer sequences.

Bax/Bcl‐2 [2] = experiment: Bax/Bcl‐2 ratio by RT‐PCR, PANC‐1 cells; format: cell-based
Method: as §1, §2

Bax/Bcl‐2 [3] = experiment: Bax/Bcl‐2 ratio by RT‐PCR, PDAC3 cells; format: cell-based
Method: as §1, §2

PATU‐T = experiment: Cell cycle analysis (FACS, PI staining), PATU‐T; format: cell-based; settings: for percentage of cells in the G2‐M phase: untreated 18.4%; for percentage of cells in the S phase: untreated 32.5%; for percentage of cells in the G0‐G1 phase: untreated 49.1%
Method: Modulation of the cell cycle was analyzed via flow cytometry. Cells (5 × 10^5 cells mL^− ^1) were seeded in 6‐well plates and were incubated at 37 °C overnight. Cells were treated with the compounds 1b and 1g at two different concentrations (1 × IC50 and 4 × IC50, according to each cell line) and were again incubated for 24 and 72 h. After treatment, cells were harvested with trypsin and were collected in specific fluorescence‐activated cell sorting (FACS) tubes. Cells were then washed with PBS and centrifuged at 1500 rpm for 5 min, in order to form a pellet. These pellets were fixed in 1 mL of ice‐cold 70% ethanol, added drop by drop during vortex, and placed in the refrigerator at 4 °C. After overnight incubation, the cells were washed twice with PBS, centrifuged (5 min at 1500 rpm), resuspended in 50 µL of RNase (100 µg mL^− ^1), and incubated for 30 min at 37 °C. Finally, 200 µL of propidium iodide solution (PI, 50 µg mL^− ^1) was added, and the cell distribution in the various phases of the cell cycle was analyzed via BD LSRFortessa Cell Analyzer. Data analysis was carried out with FACSdiva software (Becton Dickinson), while cell cycle distribution was determined using FCS express software.

PATU‐T spheroids = experiment: PATU‐T 3D spheroids, resazurin viability; format: cell-based; settings: three cell densities, 1 × IC50 and 4 × IC50
Method: The modulation of the growth of spheroids was utilized as a method to assess the effect of the novel compounds 1b and 1g in a 3D structure. The PATU‐T cell line was employed to make such a structure. Agarose 1.5% is a solid gel at RT; thus, in order to become a liquid solution, it was heated up into a microwave for about 30 s—1 min, depending on when it starts boiling. Once heated up, the bottle containing the agarose was wrapped in aluminum foil, and it was allowed to maintain the temperature and the liquid state of the agarose. Each well of a flat‐bottom 96‐well plate was coated with 70 µL of agarose. Plates were left to cool down and dried for 1 h at RT. Afterward, 7 × 10^3, 1 × 10^4, and 2 × 10^4 cells/well (200 µL) were seeded in order to identify the optimal amount of cell for the spheroid formation. Finally, the plates were centrifuged at 1200 rpm for 6 min and placed in the incubator for 7 days at 37 °C, 5% CO2. After one week, spheroids were imaged at day 0 h with the inverted routine microscope Nikon Eclipse Ts2 and were consequently treated with compounds 1b and 1g at 4 × IC50 and 1 × IC50. In order to assess the effects of the treatment, images were then taken every 3 days, and medium along with treatment was refreshed at the same interval. […] Cells were then collected, counted, and reseeded in 96‐well plates. […] Absorbance was read at 570 nm.

[4] = molecular target: phosphorylated CDK7 (p‐CDK7) (Homo sapiens, UniProt P50613); experiment: Phospho‐CDK7 (Thr170) cell‐based ELISA, SUIT 2.28; parameters: two PDAC preclinical models (SUIT 2.28 and PDAC3); endogenous in cells; host or cells: SUIT 2.28; settings: SUIT 2.28, 4 × IC50, ELISA
phosphorylated CDK7 (p‐CDK7), sequence (P50613 2-346 limits assumed): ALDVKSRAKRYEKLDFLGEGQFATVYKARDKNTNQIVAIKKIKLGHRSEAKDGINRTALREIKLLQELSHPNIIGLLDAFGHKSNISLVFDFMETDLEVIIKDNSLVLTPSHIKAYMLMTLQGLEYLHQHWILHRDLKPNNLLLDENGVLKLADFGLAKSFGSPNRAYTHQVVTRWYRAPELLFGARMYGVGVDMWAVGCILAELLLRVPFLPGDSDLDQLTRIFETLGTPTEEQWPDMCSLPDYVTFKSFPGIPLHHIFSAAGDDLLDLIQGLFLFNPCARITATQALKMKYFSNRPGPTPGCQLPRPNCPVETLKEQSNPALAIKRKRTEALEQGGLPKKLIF
phosphorylated CDK7 (p‐CDK7), sequence (P51946 whole entry partner): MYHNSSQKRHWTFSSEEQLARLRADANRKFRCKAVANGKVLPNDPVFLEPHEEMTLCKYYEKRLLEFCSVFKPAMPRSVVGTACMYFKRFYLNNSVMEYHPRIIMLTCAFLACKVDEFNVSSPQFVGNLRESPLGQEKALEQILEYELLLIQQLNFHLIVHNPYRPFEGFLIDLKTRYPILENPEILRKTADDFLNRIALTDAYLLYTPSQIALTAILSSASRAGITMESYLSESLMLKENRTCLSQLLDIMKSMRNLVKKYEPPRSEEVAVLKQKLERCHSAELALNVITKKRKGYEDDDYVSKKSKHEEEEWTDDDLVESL
phosphorylated CDK7 (p‐CDK7), sequence (P51948 whole entry partner): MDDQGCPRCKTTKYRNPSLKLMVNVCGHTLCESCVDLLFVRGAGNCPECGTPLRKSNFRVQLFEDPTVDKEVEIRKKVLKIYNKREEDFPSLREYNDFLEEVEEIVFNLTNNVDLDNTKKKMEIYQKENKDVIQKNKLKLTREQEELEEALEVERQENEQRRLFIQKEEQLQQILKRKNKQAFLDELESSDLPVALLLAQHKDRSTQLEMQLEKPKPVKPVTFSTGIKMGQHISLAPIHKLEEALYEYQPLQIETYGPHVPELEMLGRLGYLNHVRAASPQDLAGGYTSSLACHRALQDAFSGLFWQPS
Method: To detect CDK7 and phospho‐CDK7 levels at Thr170 residue after treatment, an enzyme‐linked immunosorbent assay (Biomatik, Phospho‐CDK7 (Thr170) Colorimetric Cell‐Based ELISA Kit, Cat# EKA51274) was performed according to the manufacturer's protocols. […] The absorbance was read at 450 nm using a microplate reader.

## Nc1ncnc2cc(-c3c[nH]c4ccc(Br)cc34)nn12 [Compound 1b, 7‐(5‐Bromo‐1H‐indol‐3‐yl)pyrazolo[1,5‐a][1,3,5]triazin‐4‐amine]
Bax/Bcl‐2 [1]; 1 × IC50, 24 h after treatment
  Bax/Bcl‐2 ratio SUIT 2.28: 1.07
Bax/Bcl‐2 [1]; 4 × IC50, 24 h after treatment
  Bax/Bcl‐2 ratio SUIT 2.28: 1.45
Bax/Bcl‐2 [2]; 1 × IC50, 24 h after treatment
  Bax/Bcl‐2 ratio PANC‐1: 4.12
Bax/Bcl‐2 [2]; 4 × IC50, 24 h after treatment
  Bax/Bcl‐2 ratio PANC‐1: 2.44
Bax/Bcl‐2 [3]; 1 × IC50, 24 h after treatment
  Bax/Bcl‐2 ratio PDAC3: 0.44
Bax/Bcl‐2 [3]; 4 × IC50, 24 h after treatment
  Bax/Bcl‐2 ratio PDAC3: 0.01
PATU‐T; 1 × IC50, 24 h
  percentage of cells in the G2‐M phase: 14.9%
  percentage of cells in the S phase: 49.6%
  percentage of cells in the G0‐G1 phase: 35.5%
PATU‐T; 4 × IC50, 24 h
  percentage of cells in the G2‐M phase: 10.1%
  percentage of cells in the S phase: 60.0%
  percentage of cells in the G0‐G1 phase: 30.0%
PATU‐T spheroids
  cell viability compared to untreated controls (resazurin): significantly reduced viability
[4]
  p‐CDK7 expression vs untreated: decrease in p‐CDK7 expression

## Cn1cc(-c2cc3ncnc(N)n3n2)c2cc(Br)ccc21 [Compound 1g, 7‐(5‐Bromo‐1‐methyl‐1H‐indol‐3‐yl)pyrazolo[1,5‐a][1,3,5]triazin‐4‐amine]
Bax/Bcl‐2 [1]; 1 × IC50, 24 h after treatment
  Bax/Bcl‐2 ratio SUIT 2.28: 1.21
Bax/Bcl‐2 [1]; 4 × IC50, 24 h after treatment
  Bax/Bcl‐2 ratio SUIT 2.28: 2.06
Bax/Bcl‐2 [2]; 1 × IC50, 24 h after treatment
  Bax/Bcl‐2 ratio PANC‐1: 6.41
Bax/Bcl‐2 [2]; 4 × IC50, 24 h after treatment
  Bax/Bcl‐2 ratio PANC‐1: 1.83
Bax/Bcl‐2 [3]; 1 × IC50, 24 h after treatment
  Bax/Bcl‐2 ratio PDAC3: 0.36
Bax/Bcl‐2 [3]; 4 × IC50, 24 h after treatment
  Bax/Bcl‐2 ratio PDAC3: 0.38
PATU‐T; 1 × IC50, 24 h
  percentage of cells in the G2‐M phase: 17.7%
  percentage of cells in the S phase: 35.0%
  percentage of cells in the G0‐G1 phase: 47.4%
PATU‐T; 4 × IC50, 24 h
  percentage of cells in the G2‐M phase: 15.2%
  percentage of cells in the S phase: 39.0%
  percentage of cells in the G0‐G1 phase: 45.7%
PATU‐T spheroids
  cell viability compared to untreated controls (resazurin): significantly reduced viability
[4]
  p‐CDK7 expression vs untreated: decrease in p‐CDK7 expression
